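Assay format: 96-well plates, 48-hour exposure. TGI is the concentration that stops growth completely.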
What was measured:
Experiment in all cases: growth of human tumour cells (NCI), 48 h
786-0 renal = system: 786-0 renal
A498 renal = system: A498 renal
A549 NSCLC = system: A549 NSCLC
ACHN renal = system: ACHN renal
BT-549 breast = system: BT-549 breast
CAKI-1 renal = system: CAKI-1 renal
CCRF-CEM leukemia = system: CCRF-CEM leukemia
COLO 205 colon = system: COLO 205 colon
DU-145 prostate = system: DU-145 prostate
EKVX NSCLC = system: EKVX NSCLC
HCC-2998 colon = system: HCC-2998 colon
HCT-116 colon = system: HCT-116 colon
HCT-15 colon = system: HCT-15 colon
HL-60(TB) leukemia = system: HL-60(TB) leukemia
HOP-62 NSCLC = system: HOP-62 NSCLC
HOP-92 NSCLC = system: HOP-92 NSCLC
HS 578T breast = system: HS 578T breast
HT29 colon = system: HT29 colon
IGROV1 ovarian = system: IGROV1 ovarian
K-562 leukemia = system: K-562 leukemia
KM12 colon = system: KM12 colon
LOX IMVI melanoma = system: LOX IMVI melanoma
M14 melanoma = system: M14 melanoma
MALME-3M melanoma = system: MALME-3M melanoma
MCF7 breast = system: MCF7 breast
MDA-MB-231 breast = system: MDA-MB-231 breast
MDA-MB-435 = system: MDA-MB-435
MDA-N = system: MDA-N
MOLT-4 leukemia = system: MOLT-4 leukemia
NCI-H226 lung = system: NCI-H226 lung
NCI-H23 lung = system: NCI-H23 lung
NCI-H460 lung = system: NCI-H460 lung
NCI-H522 lung = system: NCI-H522 lung
NCI/ADR-RES ovarian = system: NCI/ADR-RES ovarian
OVCAR-3 ovarian = system: OVCAR-3 ovarian
OVCAR-4 ovarian = system: OVCAR-4 ovarian
OVCAR-5 ovarian = system: OVCAR-5 ovarian
OVCAR-8 ovarian = system: OVCAR-8 ovarian
PC-3 prostate = system: PC-3 prostate
RPMI-8226 leukemia = system: RPMI-8226 leukemia
RXF 393 renal = system: RXF 393 renal
SF-268 CNS = system: SF-268 CNS
SF-295 CNS = system: SF-295 CNS
SF-539 CNS = system: SF-539 CNS
SK-MEL-2 melanoma = system: SK-MEL-2 melanoma
SK-MEL-28 melanoma = system: SK-MEL-28 melanoma
SK-MEL-5 melanoma = system: SK-MEL-5 melanoma
SK-OV-3 ovarian = system: SK-OV-3 ovarian
SN12C renal = system: SN12C renal
SNB-19 CNS = system: SNB-19 CNS
SNB-75 CNS = system: SNB-75 CNS
SR leukemia = system: SR leukemia
SW-620 colon = system: SW-620 colon
T-47D breast = system: T-47D breast
TK-10 renal = system: TK-10 renal
U251 CNS = system: U251 CNS
UACC-257 melanoma = system: UACC-257 melanoma
UACC-62 melanoma = system: UACC-62 melanoma
UO-31 renal = system: UO-31 renal

Compound CCOC(=O)/C=C(\C(=O)OCC)n1ccc(=O)n(Cc2cnnn2COCCOC(C)=O)c1=O has a TGI (786-0 renal) of 15.3 µM, a TGI (A498 renal) of 41.3 µM and a TGI (A549 NSCLC) of 43.4 µM. It also gave a TGI (ACHN renal) of 10.2 µM, a TGI (BT-549 breast) of 22.3 µM and a TGI (CAKI-1 renal) of 7.62 µM. For the same compound, the TGI (CCRF-CEM leukemia) was 4.53 µM, the TGI (COLO 205 colon) was 4.36 µM and the TGI (DU-145 prostate) was 37.7 µM. The TGI (EKVX NSCLC) was 32.6 µM, the TGI (HCC-2998 colon) was 33.4 µM and the TGI (HCT-116 colon) was 41.7 µM. For the same compound, the TGI (HCT-15 colon) was > 41.3 µM, the TGI (HL-60(TB) leukemia) was 2.04 µM and the TGI (HOP-62 NSCLC) was 38.5 µM. It also gave a TGI (HOP-92 NSCLC) of 2.16 µM, a TGI (HS 578T breast) of 61.6 µM and a TGI (HT29 colon) of 28.1 µM. For the same compound, the TGI (IGROV1 ovarian) was 36.7 µM, the TGI (K-562 leukemia) was > 100 µM and the TGI (KM12 colon) was 32.1 µM. For the same compound, the TGI (LOX IMVI melanoma) was > 40.7 µM, the TGI (M14 melanoma) was 31.7 µM and the TGI (MALME-3M melanoma) was 4.34 µM. For the same compound, the TGI (MCF7 breast) was 21.4 µM, the TGI (MDA-MB-231 breast) was 35 µM and the TGI (MDA-MB-435) was 22.5 µM. The TGI (MDA-N) was 33 µM, the TGI (MOLT-4 leukemia) was 10.3 µM and the TGI (NCI-H226 lung) was 43.2 µM. The TGI (NCI-H23 lung) was 33.1 µM, the TGI (NCI-H460 lung) was 34.1 µM and the TGI (NCI-H522 lung) was 3.53 µM. The TGI (NCI/ADR-RES ovarian) was 58.7 µM, the TGI (OVCAR-3 ovarian) was 25.1 µM and the TGI (OVCAR-4 ovarian) was 54.8 µM. The TGI (OVCAR-5 ovarian) was 32 µM, the TGI (OVCAR-8 ovarian) was 27.3 µM and the TGI (PC-3 prostate) was 33.7 µM. The TGI (RPMI-8226 leukemia) was > 42 µM, the TGI (RXF 393 renal) was 14.5 µM and the TGI (SF-268 CNS) was 36.4 µM. For the same compound, the TGI (SF-295 CNS) was > 66.6 µM, the TGI (SF-539 CNS) was 5.66 µM and the TGI (SK-MEL-2 melanoma) was 38.5 µM. For the same compound, the TGI (SK-MEL-28 melanoma) was 25.2 µM, the TGI (SK-MEL-5 melanoma) was 54.3 µM and the TGI (SK-OV-3 ovarian) was > 100 µM. For the same compound, the TGI (SN12C renal) was 36.2 µM, the TGI (SNB-19 CNS) was > 66.4 µM and the TGI (SNB-75 CNS) was 40.1 µM. The TGI (SR leukemia) was > 31.2 µM, the TGI (SW-620 colon) was 5.93 µM and the TGI (T-47D breast) was 27.5 µM. For the same compound, the TGI (TK-10 renal) was 12.6 µM, the TGI (U251 CNS) was 32.6 µM and the TGI (UACC-257 melanoma) was 30.8 µM. For the same compound, the TGI (UACC-62 melanoma) was 31 µM and the TGI (UO-31 renal) was 30.5 µM.
In the case of COc1ccc(-c2cc(-c3ccccc3)nc(/N=C\c3ccccc3)n2)c(O)c1, the TGI (786-0 renal) is reported as > 100 µM, the TGI (A498 renal) is reported as > 100 µM and the TGI (A549 NSCLC) is reported as > 100 µM. For the same compound, the TGI (ACHN renal) was > 100 µM, the TGI (BT-549 breast) was > 100 µM and the TGI (CAKI-1 renal) was 8.39 µM. The TGI (CCRF-CEM leukemia) was > 100 µM, the TGI (COLO 205 colon) was > 100 µM and the TGI (DU-145 prostate) was > 100 µM. The TGI (EKVX NSCLC) was > 100 µM, the TGI (HCC-2998 colon) was > 100 µM and the TGI (HCT-116 colon) was > 100 µM. For the same compound, the TGI (HCT-15 colon) was > 100 µM, the TGI (HL-60(TB) leukemia) was > 35.4 µM and the TGI (HOP-62 NSCLC) was > 100 µM. The TGI (HOP-92 NSCLC) was > 100 µM, the TGI (HS 578T breast) was > 100 µM and the TGI (HT29 colon) was > 100 µM. For the same compound, the TGI (IGROV1 ovarian) was > 100 µM, the TGI (K-562 leukemia) was > 100 µM and the TGI (KM12 colon) was > 100 µM. For the same compound, the TGI (LOX IMVI melanoma) was > 100 µM, the TGI (M14 melanoma) was > 100 µM and the TGI (MALME-3M melanoma) was > 100 µM. For the same compound, the TGI (MCF7 breast) was > 100 µM, the TGI (MDA-MB-231 breast) was > 100 µM and the TGI (MDA-MB-435) was > 100 µM. For the same compound, the TGI (MDA-N) was > 100 µM, the TGI (MOLT-4 leukemia) was > 100 µM and the TGI (NCI-H226 lung) was > 100 µM. The TGI (NCI-H23 lung) was > 100 µM, the TGI (NCI-H460 lung) was > 100 µM and the TGI (NCI-H522 lung) was > 100 µM. The TGI (NCI/ADR-RES ovarian) was > 100 µM, the TGI (OVCAR-3 ovarian) was > 100 µM and the TGI (OVCAR-4 ovarian) was > 100 µM. The TGI (OVCAR-5 ovarian) was > 100 µM, the TGI (OVCAR-8 ovarian) was > 100 µM and the TGI (PC-3 prostate) was > 100 µM. The TGI (RPMI-8226 leukemia) was 5.71 µM, the TGI (RXF 393 renal) was > 100 µM and the TGI (SF-268 CNS) was > 100 µM. The TGI (SF-295 CNS) was > 100 µM, the TGI (SF-539 CNS) was > 100 µM and the TGI (SK-MEL-2 melanoma) was > 100 µM. For the same compound, the TGI (SK-MEL-28 melanoma) was > 100 µM, the TGI (SK-MEL-5 melanoma) was > 100 µM and the TGI (SK-OV-3 ovarian) was > 100 µM. The TGI (SN12C renal) was > 100 µM, the TGI (SNB-19 CNS) was > 100 µM and the TGI (SNB-75 CNS) was > 100 µM. For the same compound, the TGI (SR leukemia) was > 24.1 µM, the TGI (SW-620 colon) was > 100 µM and the TGI (T-47D breast) was > 100 µM. The TGI (TK-10 renal) was > 100 µM, the TGI (U251 CNS) was > 100 µM and the TGI (UACC-257 melanoma) was > 100 µM. The TGI (UACC-62 melanoma) was > 100 µM and the TGI (UO-31 renal) was > 100 µM.

From PubChem BioAssay (NCI)
